Holding throughout (assay type): biochemical
The target in one experiment is Jak2 (a.a. 828-1132) (Homo sapiens (Human), UniProt O60674). As to the kind of experiment: In vitro JAK kinase assay (HTRF, phosphorylation of a biotinylated peptide), JAK2. Conditions: measured at 1 mM ATP. The essentials: (§1)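 Phosphorylation of a biotinylated peptide by purified His-tagged JAK catalytic domains (insect-cell baculovirus expression) ran 1 hr at room temperature. After stopping with EDTA, Eu-Py20 and SA-APC were bound for 40 minutes and HTRF measured.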
A general note: In TR-FRET formats the signal depends on donor and acceptor labels being close together.

For experiment [1], the target named is human JAK1 (a.a. 837-1142). As to the kind of experiment: In vitro JAK kinase assay (HTRF, phosphorylation of a biotinylated peptide), JAK1. The following applies: ratio of JAK2 IC50 to JAK1 IC50, measured at 1 mM ATP. The procedure, abridged: as §1
For experiment [2], the target named is human JAK1 (a.a. 837-1142) (Homo sapiens, UniProt P23458). The experiment is described as above. Conditions: measured at 1 mM ATP. The essentials:
as §1

Jak2 (a.a. 828-1132), sequence (O60674 828-1132): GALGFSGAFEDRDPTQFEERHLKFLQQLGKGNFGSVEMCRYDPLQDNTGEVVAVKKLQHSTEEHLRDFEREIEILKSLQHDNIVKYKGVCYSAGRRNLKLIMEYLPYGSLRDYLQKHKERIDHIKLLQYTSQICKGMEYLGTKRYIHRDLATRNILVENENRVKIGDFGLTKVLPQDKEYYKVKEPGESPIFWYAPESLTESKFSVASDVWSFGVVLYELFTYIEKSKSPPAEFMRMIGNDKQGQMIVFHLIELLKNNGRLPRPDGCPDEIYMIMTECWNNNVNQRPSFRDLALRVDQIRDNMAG

For the compound `N#CCC1(n2cc(-c3c(C#N)cnc4[nH]ccc34)cn2)CN(C2CCN(C(=O)c3cc(C#N)cc(C#N)c3)CC2)C1` [Example 338, 5-[(4-{3-(cyanomethyl)-3-[4-(5-cyano-1H-pyrrolo[2,3-b]pyridin-4-yl)-1H-pyrazol-1-yl]azetidin-1-yl}piperidin-1-yl)carbonyl]isophthalonitrile], the IC50 against Jak2 (a.a. 828-1132) is 50 to 100 nM; in experiment [2], 5 to 20 nM. In addition, the “IC50 Ratio JAK2/JAK1” value in experiment [1] is 7.4.
Taken in the same sequence, the figures for `N#CCC1(n2cc(-c3c(C#N)cnc4[nH]ccc34)cn2)CN(C2CCN(C(=O)c3c(F)cc(C#N)cc3F)CC2)C1` [Example 340, 4-{1-[1-[1-(4-cyano-2,6-difluorobenzoyl)piperidin-4-yl]-3-(cyanomethyl)azetidin-3-yl]-1H-pyrazol-4-yl}-1H-pyrrolo[2,3-b]pyridine-5-carbonitrile] were 10 to 50 nM, 20 to 30 nM and 1.4.
As for `N#CCC1(n2cc(-c3c(C#N)cnc4[nH]ccc34)cn2)CN(C2CCN(C(=O)c3cc(C(F)(F)F)ncc3Cl)CC2)C1` [Example 341, 4-{1-[1-{1-[5-chloro-2-(trifluoromethyl)isonicotinoyl]piperidin-4-yl}-3-(cyanomethyl)azetidin-3-yl]-1H-pyrazol-4-yl}-1H-pyrrolo[2,3-b]pyridine-5-carbonitrile], the IC50 against Jak2 (a.a. 828-1132) lay within 50 to 100 nM; in experiment [2], 5 to 20 nM. Further, the “IC50 Ratio JAK2/JAK1” value in experiment [1] stood at 3.2.
The like results for `N#CCC1(n2cc(-c3ncnc4[nH]ccc34)cn2)CN(C2CCN(C(=O)c3cc(C(F)(F)F)ncc3Cl)CC2)C1` [Example 342, {1-{1-[5-Chloro-2-(trifluoromethyl)isonicotinoyl]piperidin-4-yl}-3-[4-(7H-pyrrolo[2,3-d]pyrimidin-4-yl)-1H-pyrazol-1-yl]azetidin-3-yl}acetonitrile] were, in that order, 10 to 50 nM, no more than 5 nM and 5.7.
The like results for `N#CCC1(n2cc(-c3ncnc4[nH]ccc34)cn2)CN(C2CCN(C(=O)c3cc(C(F)(F)F)ncc3F)CC2)C1` [Example 343, {1-{1-[5-Fluoro-2-(trifluoromethyl)isonicotinoyl]piperidin-4-yl}-3-[4-(7H-pyrrolo[2,3-d]pyrimidin-4-yl)-1H-pyrazol-1-yl]azetidin-3-yl}acetonitrile] were, in that order, 50 to 100 nM, 5 to 20 nM and 5.5.
The like results for `N#CCC1(n2cc(-c3ncnc4[nH]ccc34)cn2)CN(C2CCN(C(=O)c3nc(C(F)(F)F)cs3)CC2)C1` [Example 344, [3-[4-(7H-Pyrrolo[2,3-d]pyrimidin-4-yl)-1H-pyrazol-1-yl]-1-(1-{[4-(trifluoromethyl)-1,3-thiazol-2-yl]carbonyl}piperidin-4-yl)azetidin-3-yl]acetonitrile] were, in that order, 50 to 100 nM, no more than 5 nM and 18.9.
`N#CCC1(n2ccc(-c3ncnc4[nH]ccc34)c2)CN(C2CCN(C(=O)c3ccnc(C(F)(F)F)n3)CC2)C1` [Example 345, [3-[3-(7H-Pyrrolo[2,3-d]pyrimidin-4-yl)-1H-pyrrol-1-yl]-1-(1-{[2-(trifluoromethyl)pyrimidin-4-yl]carbonyl}piperidin-4-yl)azetidin-3-yl]acetonitrile]: the results for the half-maximal inhibitory concentration (IC50) (against Jak2 (a.a. 828-1132); in experiment [2]) were 50 to 100 nM and 5 to 20 nM, respectively. For the same compound, in experiment [1], the “IC50 Ratio JAK2/JAK1” value is listed as 11.9.
Turning to `N#CCC1(n2ccc(-c3ncnc4[nH]ccc34)c2)CN(C2CCN(C(=O)c3nc(C(F)(F)F)cs3)CC2)C1` [Example 346, [3-[3-(7H-Pyrrolo[2,3-d]pyrimidin-4-yl)-1H-pyrrol-1-yl]-1-(1-{[4-(trifluoromethyl)-1,3-thiazol-2-yl]carbonyl}piperidin-4-yl)azetidin-3-yl]acetonitrile], the IC50 was 10 to 50 nM on Jak2 (a.a. 828-1132) and no more than 5 nM in experiment [2]. Besides, the “IC50 Ratio JAK2/JAK1” value in experiment [1] came to 5.9.
The like results for `N#CCC1(n2ccc(-c3ncnc4[nH]ccc34)c2)CN(C2CCN(C(=O)c3cnc(C(F)(F)F)cn3)CC2)C1` [Example 347, [3-[3-(7H-Pyrrolo[2,3-d]pyrimidin-4-yl)-1H-pyrrol-1-yl]-1-(1-{[5-(trifluoromethyl)pyrazin-2-yl]carbonyl}piperidin-4-yl)azetidin-3-yl]acetonitrile] were, in that order, 10 to 50 nM, 5 to 20 nM and 2.7.
In the case of `CS(=O)(=O)N1CCC(N2CC(CC#N)(n3ccc(-c4ncnc5[nH]ccc45)c3)C2)CC1` [Example 348, {1-[1-(Methylsulfonyl)piperidin-4-yl]-3-[3-(7H-pyrrolo[2,3-d]pyrimidin-4-yl)-1H-pyrrol-1-yl]azetidin-3-yl}acetonitrile], the IC50 is 10 to 50 nM against Jak2 (a.a. 828-1132) and no more than 5 nM in experiment [2]. Besides, the “IC50 Ratio JAK2/JAK1” value in experiment [1] was found to be 3.2.
As to `N#CCC1(n2cc(-c3ccnc4[nH]ccc34)cn2)CN(C2CCN(C(=O)c3nc(C(F)(F)F)cs3)CC2)C1` [Example 350], the concentration for half-maximal inhibition (IC50) on Jak2 (a.a. 828-1132) is greater than 100 nM; in experiment [2], 5 to 20 nM. Besides, the “IC50 Ratio JAK2/JAK1” value in experiment [1] turned out to be 15.0.
Taken in the same sequence, the figures for `CS(=O)(=O)N1CCC(N2CC(CC#N)(n3cc(-c4ccnc5[nH]ccc45)cn3)C2)CC1` [Example 351, {1-[1-(Methylsulfonyl)piperidin-4-yl]-3-[4-(1H-pyrrolo[2,3-b]pyridin-4-yl)-1H-pyrazol-1-yl]azetidin-3-yl}acetonitrile] were 10 to 50 nM, no more than 5 nM and 3.8.
Turning to `N#CCC1(n2cc(-c3c(F)cnc4[nH]ccc34)cn2)CN(C2CCN(C(=O)c3cncc(C(F)(F)F)n3)CC2)C1` [Example 352, [3-[4-(5-Fluoro-1H-pyrrolo[2,3-b]pyridin-4-yl)-1H-pyrazol-1-yl]-1-(1-{[6-(trifluoromethyl)pyrazin-2-yl]carbonyl}piperidin-4-yl)azetidin-3-yl]acetonitrile], the figures for the IC50 (against Jak2 (a.a. 828-1132); in experiment [2]) were 10 to 50 nM and no more than 5 nM, respectively. The “IC50 Ratio JAK2/JAK1” value in experiment [1] is on record as 18.8.
The like results for `N#CCC1(n2cc(-c3c(F)cnc4[nH]ccc34)cn2)CN(C2CCN(C(=O)c3ccnc(C(F)(F)F)n3)CC2)C1` [Example 353, [3-[4-(5-Fluoro-1H-pyrrolo[2,3-b]pyridin-4-yl)-1H-pyrazol-1-yl]-1-(1-{[2-(trifluoromethyl)pyrimidin-4-yl]carbonyl}piperidin-4-yl)azetidin-3-yl]acetonitrile] were, in that order, 10 to 50 nM, 5 to 20 nM and 5.0.
The like results for `N#CCC1(n2cc(-c3c(F)cnc4[nH]ccc34)cn2)CN(C2CCN(C(=O)c3cnc(C(F)(F)F)cn3)CC2)C1` [Example 354, [3-[4-(5-Fluoro-1H-pyrrolo[2,3-b]pyridin-4-yl)-1H-pyrazol-1-yl]-1-(1-{[5-(trifluoromethyl)pyrazin-2-yl]carbonyl}piperidin-4-yl)azetidin-3-yl]acetonitrile] were, in that order, 10 to 50 nM, 5 to 20 nM and 2.1.
The like results for `CS(=O)(=O)N1CCC(N2CC(CC#N)(n3cc(-c4c(F)cnc5[nH]ccc45)cn3)C2)CC1` [Example 355, {3-[4-(5-Fluoro-1H-pyrrolo[2,3-b]pyridin-4-yl)-1H-pyrazol-1-yl]-1-[1-(methylsulfonyl)piperidin-4-yl]azetidin-3-yl}acetonitrile] were, in that order, no more than 10 nM, no more than 5 nM and 3.1.
Consider `N#CCC1(n2cc(-c3c(C#N)cnc4[nH]ccc34)cn2)CN(C2CCN(C(=O)c3cc(C(F)(F)F)ncc3F)CC2)C1` [Example 356, 4-[1-(3-(Cyanomethyl)-1-{1-[5-fluoro-2-(trifluoromethyl)isonicotinoyl]piperidin-4-yl}azetidin-3-yl)-1H-pyrazol-4-yl]-1H-pyrrolo[2,3-b]pyridine-5-carbonitrile], for which the values for the IC50 (at Jak2 (a.a. 828-1132); in experiment [2]) were 50 to 100 nM and 5 to 20 nM, respectively. The “IC50 Ratio JAK2/JAK1” value in experiment [1] was determined as 5.8.
Taken in the same sequence, the figures for `CS(=O)(=O)N1CCC(N2CC(CC#N)(n3cc(-c4c(C#N)cnc5[nH]ccc45)cn3)C2)CC1` [Example 357, 4-(1-{3-(Cyanomethyl)-1-[1-(methylsulfonyl)piperidin-4-yl]azetidin-3-yl}-1H-pyrazol-4-yl)-1H-pyrrolo[2,3-b]pyridine-5-carbonitrile] were 10 to 50 nM, no more than 5 nM and 3.8.
The like results for `N#CCC1(n2cc(-c3ncnc4[nH]ccc34)cn2)CN(C2C3COCC2CN(C(=O)c2ccnc(C(F)(F)F)c2F)C3)C1` (stereo not drawn) [Example 365, {1-{7-[3-Fluoro-2-(trifluoromethyl)isonicotinoyl]-3-oxa-7-azabicyclo[3.3.1]non-9-yl}-3-[4-(7H-pyrrolo[2,3-d]pyrimidin-4-yl)-1H-pyrazol-1-yl]azetidin-3-yl}acetonitrile] were, in that order, 10 to 50 nM, no more than 5 nM and 15.5.
For the compound `CC(C)NC(=O)N1CCC(N2CC(CC#N)(n3cc(-c4ncnc5[nH]ccc45)cn3)C2)CC1` [Example 367, 4-{3-(cyanomethyl)-3-[4-(7H-pyrrolo[2,3-d]pyrimidin-4-yl)-1H-pyrazol-1-yl]azetidin-1-yl}-N-isopropylpiperidine-1-carboxamide], the IC50 was 10 to 50 nM at Jak2 (a.a. 828-1132) and no more than 5 nM in experiment [2]. In addition, in experiment [1], the “IC50 Ratio JAK2/JAK1” value is on record as 33.8.
Take `CN(C)Cc1cc(C(=O)N2CCC(N3CC(CC#N)(n4cc(-c5ncnc6[nH]ccc56)cn4)C3)CC2)c(F)c(C(F)(F)F)n1` [Example 368, {1-{1-[6-[(dimethylamino)methyl]-3-fluoro-2-(trifluoromethyl)isonicotinoyl]piperidin-4-yl}-3-[4-(7H-pyrrolo[2,3-d]pyrimidin-4-yl)-1H-pyrazol-1-yl]azetidin-3-yl}acetonitrile]: the figures for the IC50 (at Jak2 (a.a. 828-1132); in experiment [2]) were 10 to 50 nM and no more than 5 nM, respectively. The “IC50 Ratio JAK2/JAK1” value in experiment [1] stood at 54.2.

The IC50 is the concentration that gives 50% inhibition. Low readings indicate greater potency in that assay, high ones weaker potency in that assay.

Values taken from US9999619B2, “Piperidin-4-yl azetidine derivatives as JAK1 inhibitors” (Incyte Corporation, priority 2010, dated 2018).
